Assays:
[1] = system: human peripheral blood eosinophils; experiment: complement C5a-stimulated degranulation (EPO release) of human eosinophils; assay type: cell-based; settings: for IC50: C5a (30 nM) + cytochalasin B, 10 min pre-incubation, 30 min at 37° C., read-out: concentration achieving 50% inhibition of EPO release; for effect on EPO release at high concentration: at the concentrations of 300 nM and above
Description: Example 1 involves the testing of the effect of complement C5a-induced degranulation of human blood eosinophils, and IgE-dependent degranulation of mast cells. Human peripheral blood eosinophils were purified to >98% by the immunomagnetic method. Aliquots containing 2.5×10^4 cells were added to each well of a 96-well microplate. The cells were separately pre-incubated for 10 minutes with CEE-1, CEE-2 or the drug solvent (DMSO) and then subsequently stimulated with recombinant human complement C5a (30 nM) in the presence of cytochalasin B (5 μg/mL). The reaction was allowed to proceed for 30 minutes at 37° C. The amount of the granular eosinophil peroxidases (EPO) released into the supernatant (as index of degranulation) was determined by the o-phenylenediamine method. The amount of EPO released was expressed as a percentage of the total cell content.
Cells were incubated with the each of CEE-1 and CEE-2 for 10 minutes before stimulation. Control uninhibited releases were in the range of 20-30% of total cell content. Results are shown as mean±SD, n=4.

[2] = system: mouse peritoneal macrophages; experiment: LPS-stimulated release of TNF-α from mouse peritoneal macrophages; assay type: cell-based; settings: for IC50: LPS 1 μg/mL for 18 hours, 30 min pre-treatment, ELISA, read-out: concentration that achieved 50% inhibition of TNF-α release
Description: The antiinflammatory effect of CEE-1 and CEE-2 was tested on LPS-stimulated release of tumor necrotic factor-α (TNF-α) from mouse peritoneal macrophages. Thioglycollate-induced peritoneal macrophages were obtained by peritoneal lavage of Balb c mice. Macrophages purified by adherence to plastic plate were cultured in a supplemented RPMI medium and pre-treated with CEE-1, CEE-2 or their solvent (DMSO) for 30 minutes before being stimulated with LPS (1 μg/mL) for 18 hours. The amount of TNF-α released into the supernatant was determined by ELISA using commercially available kits.
FIG. 4 illustrates the inhibitory effect of CEE-1 and CEE-2 on the release of TNF-α from LPS-stimulated mouse peritoneal macrophages. Cells were pre-treated with the drugs for 30 minutes before stimulation with LPS (1 μg/mL). The net uninhibited releases were in the range of 130-185 pg/ml. Values are shown as mean±SD, n=3.

RBL-2H3 mast cells [3] = system: RBL-2H3 mast cells
[4] = system: human peripheral blood eosinophils; experiment: viability of eosinophils at concentrations that abolished EPO release; assay type: cell-based
Text: In untreated cells, C5a induced the release of 20-30% of the total cellular content of EPO.

RBL-2H3 mast cells [5] = experiment: antigen induced IgE-mediated degranulation (β-hexoseaminidase release) of mast cells (RBL-2H3); assay type: cell-based, rat; settings: anti-DNP IgE sensitized, DNP-BSA 100 ng/mL, 10 min pre-treatment; read-out: concentration achieving 50% inhibition of β-hexoseaminidase release
Description: The anti-allergic effect was tested on IgE-dependent mast cell degranulation using the rat basophilic leukemia (RBL-2H3) cell line model. The cells were passively sensitized with 0.5 μg/mL anti-DNP monoclonal IgE antibody for 1 hour, and then washed twice to remove unbound antibody. They were then separately pre-treated with CEE-1, CEE-2 or their solvent (DMSO) for 10 minutes before being stimulated with the specific antigen DNP-BSA (100 ng/mL). After 30 minutes of incubation, the amount of granular β-hexoseaminidase released into the supernatant (index of degranulation) was determined photometrically.
FIG. 3 illustrates the inhibition of antigen induced IgE-mediated degranulation (β-hexoseaminidase release) of mast cells (RBL-2H3) by CEE-1 and CEE-2. Cells were incubated with CEE-1 and CEE-2 for 10 minutes before stimulation. Control uninhibited releases were in the range of 15-26% of total cell content. Results are shown as mean±SD, n=3.

[6] = system: mouse peritoneal macrophages; experiment: viability of macrophages after overnight incubation; assay type: cell-based

| Compound | IC50 [1] [nM] | effect on EPO release at high concentration [1] | IC50 [2] [nM] | effect on TNF-α release at 10 μM [2] | cellular toxicity (trypan blue exclusion test) (RBL-2H3 mast cells [3]) | viability of the cells [4] | IC50 (RBL-2H3 mast cells [5]) [nM] | viability of the cells [6] |
| --- | --- | --- | --- | --- | --- | --- | --- | --- |
| COC(=O)C1C(=O)C=C(NNc2ccccc2)CC1c1ccccc1 (stereo not shown) [CEE-2, methyl 4-phenylhydrazinocyclohex-3-en-2-oxo-6-phenyl-1-oate] | 94 | completely abolished EPO release | 82 | completely abolished the release | no cellular toxicity | did not significantly affect the viability of the cells | 1200 | no effect on their viability |
| CCOC(=O)C1C(=O)C=C(NNc2ccccc2)CC1c1ccccc1 (stereo not shown) [CEE-1, ethyl 4-phenylhydrazinocyclohex-3-en-2-oxo-6-phenyl-1-oate] | 45 | completely abolished EPO release | 80 | completely abolished the release | no cellular toxicity | did not significantly affect the viability of the cells | 800 | no effect on their viability |

From US8324422B2, “Enhydrazone esters for treating asthma, allergy and inflammation” (Kuwait University, priority 2008, dated 2012)
